Here are results for one compound from PMC3352175, “Non-coding nucleotides and amino acids near the active site regulate peptide deformylase expression and inhibitor susceptibility in Chlamydia trachomatis” (Microbiology, 2011).

The assay addresses T1, chlamydial PDF (cPDF), peptide deformylase.
T1 construct: gene def; C-terminal His6 tag (pET21), expressed in ArcticExpress E. coli, purified on TALON resin
Briefly: TNBSA end-point deformylation assay (A335), Lineweaver-Burk. Particulars: fMAS substrate; 50 mM HEPES pH 7.2, 10 mM NaCl, 37 °C, 10 min; mode not stated; read-out: Wild-type. It counts as biochemical, Chlamydia trachomatis. From the text:
TNBSA end-point deformylation assay (A335), Lineweaver-Burk on chlamydial PDF (cPDF), peptide deformylase

`CNC(=O)[C@H](Cc1c[nH]c2ccccc12)NC(=O)[C@@H](CC(=O)NO)CC(C)C` [GM6001, N-[(2R)-2-(hydroxamidocarbonylmethyl)-4-methylpentanoyl]-L-tryptophan methylamide]: the Ki is 160 ± 35 nM.
